Assay results from patent publication US20220133669A1, “PHARMACEUTICAL COMPOSITIONS COMPRISING 15-HETRE AND METHODS OF USE THEREOF” (DS Biopharma Limited, priority 2020, published 2022).

What was measured:
[1] = Tissue distribution following oral administration of 15-HETrE; format: in vivo, rats; settings: 500 mg/kg p.o. once daily for 7 days; tissues taken 24 hours after final dose
Protocol: The objective of this study was to examine distribution of orally administered 15-HETrE. Male CRL:CD rats were obtained from Charles River Laboratories. Upon receipt, animals were allowed to acclimatize for 5 days prior to start of testing, housed under a 12 h light/dark cycle, and provided a pellet diet (RM-1) and water ad libitum. Animals were dosed with 15-HETrE or vehicle (0.5% HPMC in ASTM Type 1 water) p.o. once daily for 7 days. Animals were monitored at 0.25, 0.5, and 1 hour post dose. During the treatment period, individual body weight was measured daily as well as clinical signs of behavior and survival.
24 hours after the final p.o. dose, each animal was killed by anaesthetic overdose with an intraperitoneal injection of pentobarbitone. A blood sample was collected from the descending vena cava. Lungs, heart, liver, kidneys, spleen, colon, and an area of shaved skin were harvested from each animal, rinsed in PBS, dabbed dry, weighed, and snap-frozen by immersion in liquid nitrogen. All tissue samples were stored frozen at −80° C.

human islet microtissue [2] = test: Cytotoxicity pretest: ATP content (CellTiter-Glo cell viability) in islet microtissues; format: cell-based; settings: after 7 days of treatment
Protocol: (§1) From Days 0-7, a human islet microtissue was established. On Day 7, 15-HETrE treatment commenced. From Days 9-12, the culture media was renewed and the compound (15-HETrE) was re-dosed. On Day 14, an assessment on islet cell viability was performed—tissues were lysed to measure ATP content using Promega CellTiter-Glo luminescent cell viability assay. On Day 14, an assessment on islet cell function was also performed—conditioned media from the last 48 hours of the experiment was collected to test chronic insulin secretion. And lastly, on Day 14, insulin was quantified—following dilutions in Krebs-Ringer HEPES buffer, chronic insulin secretion was quantified using STELLUX Chemi Human Insulin ELISA assay.

human islet microtissue [3] = test: 15-HETrE efficacy: human islet microtissue function under glucotoxic conditions; format: cell-based
Protocol: (§2) The aim of the following study was to determine the effects of 15(S)-HETrE activity on diabetes. This aim was accomplished by (1) identifying a cytotoxic threshold of 15(S)-HETrE in islet microtissues and (2) testing the effects of 15(S)-HETrE on human islet microtissue function under conditions of glucotoxicity and cytokine stress.
(§3) From Days 0-13, an islet microtissue model was established and glucotoxicity pre-test performed. Day 14 marked the start of glucotoxicity assay and 12.5 μM, 25 μM and 50 μM 15(S)-HETrE treatment. From Days 16-19, the culture media was renewed, and the compound (15-HETrE) was re-dosed. Day 12 marked the start of the cytokine stress assay for the 12.5 μM, 25 μM and 50 μM 15(S)-HETrE treatment. On Day, 12 an intermediate assessment of the compound effects was also performed (e.g., Day 7 incubation in glucotoxic conditions). On Day 12, a renewal of the culture media and compound treatment was performed. On Days 23 and 26, a renewal of the culture media and compound treatment was also performed. Lastly, on Day 28, an assessment of the compound effects under glucotoxicity/cytokine stress at the end of 14- and 7-day incubation was performed.

human islet microtissue [4] = test: Cytotoxicity pretest: chronic insulin secretion (Human Insulin ELISA) of islet microtissues; format: cell-based; settings: 300 μM; after 7 days of treatment
Protocol: as §1

human islet microtissue [5] = test: 15-HETrE efficacy: human islet microtissue under cytokine stress; format: cell-based; settings: 50 μM
Protocol: as §2, §3

## CCCCCC(O)/C=C/C=C\C/C=C\CCCCCCC(=O)O (stereo not drawn) [15-HETrE, 15-hydroxy-eicosa-8(Z),11(Z),13(E)-trienoic acid]
[1]
  tissue distribution of 15-HETrE (heart, kidney, liver, spleen, lung, plasma, skin, colon) vs control animals: targeted all organs tested, including the skin

## CCCCC[C@H](O)/C=C/C=C\C/C=C\CCCCCCC(=O)O [15(S)-HETrE]
Human islet microtissue [2]; 11.1 μM
  ATP content: significant increase
Human islet microtissue [2]; 300 μM
  ATP content: significant decrease
Human islet microtissue [3]; 25 μM, day 14
  fold stimulation of insulin secretion: improved
Human islet microtissue [3]; 50 μM
  ATP levels: significantly decreased
Human islet microtissue [3]; day 7
  chronic insulin secretion: reduced
Human islet microtissue [3]; day 7, 50 μM
  stimulated insulin secretion: significant decrease
Human islet microtissue [3]; day 7, 12.5, 25 and 50 μM
  basal insulin secretion: dose-dependent decrease
Human islet microtissue [3]; day 14
  chronic insulin secretion: reduced
Human islet microtissue [3]; day 14, 12.5, 25 and 50 μM
  basal insulin secretion: dose-dependent decrease
Human islet microtissue [4]
  chronic insulin secretion: significant decrease
Human islet microtissue [5]
  ATP content: significant decrease
